# Source: PMC7215935, “GM1 Oligosaccharide Crosses the Human Blood–Brain Barrier In Vitro by a Paracellular Route” (International Journal of Molecular Sciences, 2020)
# Legend:
# [1] = system: hBLECs; test: Metabolic integrity of OligoGM1 after hBLEC transport (HPTLC autoradiography); assay type: in vitro ADME, human; conditions: basolateral compartment, detection limit 15 dpm
# Source text: Since OligoGM1 is tritium labeled at position 6 of the external galactose, any possible galactosidase activity present on the plasma membrane of hBLECs can result in external galactose removal, leading to loss of radioactivity from the penta-saccharide. Radiolabeled galactose may pass the BBB or may enter into the cells and be recycled for the biosynthesis of new glycans, so that the radioactivity found may correspond to the galactose or to any possible new glycan rather than to the original oligosaccharide.
# Thus, to test the integrity of the OligoGM1 molecule after hBLEC crossing, OligoGM1 solution was prepared in RH buffer at a final concentration of 100 μM plus 1 × 10^6 dpm of tritium-labeled OligoGM1. For the apical–basolateral transport experiment, the hBLEC insert’s apical side was filled with 0.5 mL of the drug solution and placed on 1.5 mL RH buffer-filled well of a 12-well plate. After 60 min, the solution of the receiving compartment (about 1.5 mL) was collected and 200 μL were combined with 5 mL of ULTIMA GOLD liquid (PerkinElmer), shaken, and counted for 20 min by a liquid scintillation analyzer (TRI-CARB 2100TR, Packard).
# To verify that the counted radioactivity indeed corresponded to [^3H]OligoGM1, 0.5 mL of receiving compartment solution was lyophilized and suspended in 0.5 mL of methanol. […]
# [2] = system: N2a cells; test: N2a differentiation by hBLEC-crossed OligoGM1 (morphology); assay type: cell-based, mouse; conditions: basolateral solution (~25 μM), 24 h
# Method: For differentiation experiments, N2a cells were seeded at 5 × 10^3/cm^2 and incubated for 24 h in regular culture condition to allow cell attachment. Before all treatments, growth medium was removed and cells were adapted for 30 min in pre-warmed (37 °C) Transfectagro medium containing 2% heat-inactivated FBS, 1% L-glutamine, and 1% penicillin/streptomycin solution. All treatments were conducted at 37 °C in a humidified atmosphere of 95% air/5% CO2.
# Precisely, [^3H]OligoGM1 (1 × 10^6 dpm) diluted into cold OligoGM1 solution (300 µM) was administered for 240 min to hBLECs in the upper compartment so that at a volume of 0.5 mL there was 150 nmol of OligoGM1. […] After the 240 min incubation period, the basolateral solution was screened to find the quantity of crossed OligoGM1 by measuring ^3H-radioactivity and was then administered to N2a cells for 24 h. […] Morphological signals of neurodifferentiation were evaluated by cell observation and TrkA-ERK1/2 pathway activation was verified by immunoblotting (for procedural details see Supplementary Materials and [22, 23]). […]
# (§1) Since mycoplasma could infect of Caco-2 cells, we validated the absence of any contamination by two methods (data not shown). […] Briefly culture supernatants were mixed with MycoAlert reagents according to manufacturer instruction and the luminescence was measured after 10 min using fluorimeter (BioTek, H1, Vermont, Winooski). […]
# [3] = system: TrkA-ERK1/2 pathway; test: TrkA-ERK1/2 pathway activation in N2a cells (immunoblotting); assay type: cell-based, mouse; conditions: basolateral solution
# Method: Precisely, [^3H]OligoGM1 (1 × 10^6 dpm) diluted into cold OligoGM1 solution (300 µM) was administered for 240 min to hBLECs in the upper compartment so that at a volume of 0.5 mL there was 150 nmol of OligoGM1. […] After the 240 min incubation period, the basolateral solution was screened to find the quantity of crossed OligoGM1 by measuring ^3H-radioactivity and was then administered to N2a cells for 24 h. For control cells, we administered a basolateral solution derived from hBLECs incubated with Transfectagro without OligoGM1. Morphological signals of neurodifferentiation were evaluated by cell observation and TrkA-ERK1/2 pathway activation was verified by immunoblotting (for procedural details see Supplementary Materials and [22, 23]).
# Caco-2 cells are not listed as commonly misidentified cell line by the International Cell Line Authentication Committee. However it is reported that culture condition and cell origin can deeply affect Caco-2 morphology and behavior [4-6]. […]
# as §1
# It is calculated according to the equation (1): […]
# [4] = system: human brain-like endothelial cells (hBLECs); test: Direct transport (apical to basolateral, A → B) across the hBLEC monolayer: Pe and Papp; assay type: in vitro ADME; conditions: 300 μM apical, after 240 min
# [5] = system: P-gp/BCRP; test: ABC transporter competition assay (Caco-2 pump out), R123 efflux; conditions: Caco-2 cells, 10, 50 and 100 μM, vs control
# Method: Briefly, Caco-2 cells in 96-well plates were washed once with RH buffer and incubated for 120 min with 10 µM R123 or for 15 min with 0.5 µM CMFDA. R123 and CMFD are substrates for the major efflux pumps expressed by BBB and intestine cells, i.e., P-gp/BCRP and MRPs, respectively. After the incubation period, Caco-2 cells were washed twice with RH buffer with or without test compounds (OligoGM1 at 10, 50, and 100 µM). The rate out (Kout) of Caco-2 cells for fluorescent dyes was monitored by fluorescence measurement (λex = 501 nm and λem = 538 nm for R123; λex = 485 nm and λem = 538 nm for CMFDA) using a microplate fluorescent reader (BioTek, H1, Vermont, Winooski). The amount of dye expelled from the cells was measured at 37 °C and every 5 min for one hour for R123 and every 2 min for 30 min for CMFDA. The rate out of the dye from cells was calculated as the slope of the curve of the cumulative amount of dye against the time (Kout = ∆pmol⁄∆t) and compared with the value in the presence of test compounds.
smiles,measurement,setting,value
"CC(=O)NC1C(O)CC(OC2C(O)C(OC3C(CO)OC(O)C(O)C3O)OC(CO)C2OC2OC(CO)C(O)C(OC3OC(CO)C(O)C(O)C3O)C2NC(C)=O)(C(=O)O)OC1C(O)C(O)CO (stereo not drawn) [OligoGM1, β-Gal-(1-3)-β-GalNAc-(1-4)-[α-Neu5Ac-(2-3)]-β-Gal-(1-4)-β-Glc]",metabolic stability after hBLEC crossing,[1],not metabolized by hBLECs
same,N2a cell morphology / neurite sprouting,[2],induced a neuron-like morphology
same,"TrkA-ERK1/2 pathway (pTrkA, pERK1/2)",[3],activation of the TrkA-ERK1/2 pathway
same,concentration in receiving compartment,[4],~ 25 μM
same,share of administered amount in receiving compartment,[4]; Transfectagro medium,25%
same,effect on efflux (Kout) of R123,[5],did not identify any difference
